US10239861B2, “Therapeutic compounds and uses thereof” (GENENTECH, INC., priority 2015, dated 2019)

Molecular target: PCAF bromodomain (His/Flag epitope tagged PCAF719-832) (Homo sapiens (Human), UniProt Q92831)
Assay: PCAF AlphaLisa binding assay
Details: AlphaLisa; PCAF bromodomain 225 nM, biotinylated small molecule ligand 6 nM; read-out: PCAF IC50
Procedure: IC50 Measurements for Inhibitors Using PCAF AlphaLisa Binding Assay
PCAF bromodomain binding and inhibition of the compounds disclosed herein was assessed by monitoring the engagement of biotinylated small molecule ligand (known to bind to the PCAF bromodomain) with the target using the AlphaLisa technology (Perkin-Elmer).

PCAF bromodomain (His/Flag epitope tagged PCAF719-832), sequence (Q92831 719-832): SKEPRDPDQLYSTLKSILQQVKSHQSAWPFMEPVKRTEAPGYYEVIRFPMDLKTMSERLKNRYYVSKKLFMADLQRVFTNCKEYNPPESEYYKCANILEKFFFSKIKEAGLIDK

Row | IC50 [nM] | Structure (SMILES)
1 | 466 | Cn1ncc(NC2CCCN(Cc3nc(-c4ccc(Cl)cc4)no3)C2)c(Cl)c1=O (stereo not shown) [Example 55, 4-chloro-5-[[1-[[3-(4-chlorophenyl)-1,2,4-oxadiazol-5-yl]methyl]-3-piperidyl]amino]-2-methyl-pyridazin-3-one]
2 | 139 | Cn1ncc(NC2CCCN(Cc3ccc(F)cc3)C2)c(Cl)c1=O (stereo not shown) [Example 56, 4-chloro-5-[[1-[(4-fluorophenyl)methyl]-3-piperidyl]amino]-2-methyl-pyridazin-3-one]
3 | 32.9 | CN1CCCC[C@H](Nc2cnn(C)c(=O)c2Cl)C1 [Example 57, (S)-4-chloro-2-methyl-5-((1-methylazepan-3-yl)amino)pyridazin-3(2H)-one]
4 | 169 | CN1CCCC[C@@H](Nc2cnn(C)c(=O)c2Cl)C1 [Example 58, (R)-4-chloro-2-methyl-5-((1-methylazepan-3-yl)amino)pyridazin-3(2H)-one]
